Source: patent publication US8188091B2, “Tetrahydroquinazoline compounds and their use in preparing medicaments for treating and preventing virosis” (Beijing Molecule Science and Technology Co., Ltd., priority 2007, dated 2012)
Where two headings read alike, the source gives them in different places.

Tests used:
HBV DNA = test: Antiviral activity: inhibition of HBV DNA in supernatant of HepG 2.2.15 cells (dot blot hybridization); type: cell-based, hepatitis B virus (HBV); settings: for IC50: Hepatitis B virus, HepG2.2.15, 192 h, read-out: IC50 (inhibition of the compounds on HBV DNA); for SI: selectivity index, TC50/IC50, HepG 2.2.15 cells
Protocol: The antiviral effects of the compounds according to the present invention was determined following the methods described by Sells et al. (M. A. Sells, M. L. Chen, g. Acs, Proc. Natl. Acad. Sci., 1987, 84, 1005-1009) and Korba et al., (B. E. Korba, J. L. Gerin, Antiviral Research, 1992, 19. 55-70).
(§1) The antiviral assays were carried out in 96-well microtitre plates. Only growth medium and HepG 2.2.15 cells were added to the first vertical row of the plate, as a blank control.
(§2) Stock solutions of the test compounds (50 mM) were initially dissolved in DMSO, and further dilutions were prepared in the growth medium of HepG 2.2.15 cell. The compounds according to the present invention, usually in a test concentration of 100 μg/ml (1st test concentration), were pipetted into each well in the second vertical test row of the microtitre plate and subsequently diluted by 2 times each time, up to 2^10-fold, using the growth medium plus 2% of foetal calf serum (volume 25 p. 1).
(§3) 225 μl of a HepG 2.2.15 cell suspension (5×10^4 cells/ml) in the growth medium plus 2% foetal calf serum were then added to each well of the microtitre plate.
(§4) The assay mixture was incubated at 37° C., 5% CO2 for 4 days. The supernatant was subsequently siphoned off and discarded, and 225 μl of freshly prepared growth medium were added to each well. Once more, the compounds according to the present invention were added, in a volume 25 μl of solution. The mixtures were incubated for another 4 days.
The supernatants were subsequently harvested and siphoned onto in vacuum 96-well dot blot chambers covered with a nylon membrane (in accordance with the instructions of the manufacturer).
Determination of the Antiviral Activity
After transfer of the supernatants onto the nylon membrane of the blot apparatus (see above), the supernatants of the HepG 2.2.15 cells were denatured (1.5 M NaCl/0.5 M NaOH), neutralized (3 M […]/0.5 M Tris HCl, pH 7.5) and washed (2×SSC). The DNA was subsequently baked onto the membrane By incubation of the filters at 120° C. for 2-4 hours.
The viral DNA of the treated HepG 2.2.15 cells on the nylon filter membrane was usually detected using non-radioactive digoxigenin-labelled hepatitis B-specific DNA probes, which were in each case labelled with digoxigenin, purified and used for hybridization in accordance with the instructions of the manufacturer.
Briefly speaking, the prehybridization and hybridization were carried out in 5×SSC, 1× a blocking agent, 0.1% N-lauroylsacosine, 0.02% SDS and 100 μg of DNA from herring sperm. The prehybridization was carried out at 60° C. for 30 minutes and the specific hybridization was carried out using 20 to 40 ng/ml of the digoxigenated denatured HBV-specific DNA (14 hours, 60° C.). The filler membrane was subsequently washed and the antibody against digoxigenin of HBV DNA was determined.
The digoxigenin-labelled DNA was detected immunologically in accordance with the instructions of the manufacturer.
Briefly speaking, the filler membranes were washed and prehybridized in the blocking agent (in accordance with the instructions of the manufacturer), and then hybridized for 30 minutes using an anti-DIG antibody previously coupled to an alkaline phosphatase. After washing, a substrate of alkaline phosphoesterase, CSPD, was added, incubated with the filter for 5 minutes, subsequently wrapped in a plastic film and incubated at 37° C. for a further 15 minutes. The chemiluminescene signals of the Hepatitis B-specific DNA were measured by exposition of the filters on an X-ray film (incubating for 10 minutes to 2 hours, depending on strength of the signals). The half-maximum inhibitory concentration (IC50) was determined.
The half-maximum inhibitory concentration (IC50) means the concentration of the compound according to the present invention at which the hepatitis B-specific band was reduced by 50% in comparison with an untreated sample.

[1] = Determination of the cytotoxicity in HepG 2.2.15 cells (microscopy, Reed & Muench); type: cell-based; settings: human, pathological changes at 8 days, read-out: TC50 (half-maximum toxic concentration)
Protocol: as §1, §2, §3, §4
Before the supernatants were harvested for determining the antiviral effect, the HepG 2.2.15 cells were examined by an optical microscopy or by biochemical detecting methods (for example Alamar Blue staining or Trypan Blue staining) for cytotoxic changes.
Determination of the Cytotoxicity
Substances-induced cytotoxic or cytostatic changes in the HepG 2.2.15 cells can be determined by for example a optical microscopy and expressed as changes in the cell morphology. Such substance-induced changes, for example, as cell lysis, vacuolization or changed cell morphology in the HepG 2.2.15 cells was apparent in comparison with those in untreated cells. The pathological changes were observed under a microscope at 8 days as indice, wherein a complete destroy being designated as 4, 75% as 3, 50% as 2, 25% as 1, and no pathological change as 0. The average degree of pathological change and inhibition percentages at various concentrations were calculated, and a half-maximum toxic concentration (TC50) and a maximum non-toxic concentration TC0 were determined according to Reed & Muench methods.
TC50 means the concentration of the compounds according to the present invention at which 50% of the cells have a morphology which is similar to that of the corresponding cell control.

[2] = Solubility of the hydrochloride solid in solvents; type: physicochemical
Protocol: 0.38 g of the object compound obtained in Example 1 was dissolved in 2 ml anhydrous ethanol, to which hydrogen chloride ethyl solution was added dropwise to precipitate a solid, and filtered to obtain an off-white powdery solid 0.41 g, mp 197-199° C.

[3] = HepG 2.2.15 cells, 8 days treatment

CC1(C)CC(=O)C2=C(C1)NC(c1cccnc1)=NC2c1ccc(F)cc1Cl (stereo not shown) [Example 1, 2-(pyridin-3-yl)-4-(2-chloro-4-fluorophenyl)-7,7-dimethyl-4,6,7,8-tetrahydroquinazolin-5(1H)-one]
IC50 (HBV DNA; [3]): 0.026 µM | SI (HBV DNA): 4192 | melting point: 186 to 187 °C | CC50 at 8 days [1]: 109 µM

CC1(C)CC(=O)C2=C(C1)NC(c1cccnc1)=NC2c1ccc(F)cc1Cl.Cl (stereo not shown) [Example 2, 2-(pyridin-3-yl)-4-(2-chloro-4-fluorophenyl)-7,7-dimethyl-4,6,7,8-tetrahydroquinazolin-5(1H)-one hydrochloride]
solubility in dichloromethane, ethyl acetate, acetone, etc. ([2]; dichloromethane, ethyl acetate, acetone, etc.): insoluble | solubility in methanol and ethanol ([2]; methanol and ethanol): soluble slightly | solubility in water ([2]; water): very easily soluable

O=C1CCCC2=C1C(c1ccc(F)cc1Cl)N=C(c1cccnc1)N2 (stereo not shown) [Example 3, 2-(pyridin-3-yl)-4-(2-chloro-4-fluorophenyl)-4,6,7,8-tetrahydroquinazolin-5(1H)-one]
IC50 (HBV DNA; [3]): 25.2 µM | SI (HBV DNA): 9.25 | CC50 at 8 days [1]: 233 µM

CC1(C)CC(=O)C2=C(C1)NC(c1cccnc1)=NC2c1ccc(F)cc1 (stereo not shown) [Example 4, 2-(pyridin-3-yl)-4-(4-fluorophenyl)-7,7-dimethyl-4,6,7,8-tetrahydroquinazolin-5(1H)-one]
IC50 (HBV DNA; [3]): 25.3 µM | SI (HBV DNA): 5.73 | CC50 at 8 days [1]: 145 µM

CC1(C)CC(=O)C2=C(C1)NC(c1cccnc1)=NC2c1ccccc1 (stereo not shown) [Example 5, 2-(pyridin-3-yl)-4-phenyl-7,7-dimethyl-4,6,7,8-tetrahydroquinazolin-5(1H)-one]
IC50 (HBV DNA; [3]): 22.5 µM | SI (HBV DNA): 7.70 | CC50 at 8 days [1]: 173 µM

O=C1CCCC2=C1C(c1ccccc1)N=C(c1cccnc1)N2 (stereo not shown) [Example 6, 2-(pyridin-3-yl)-4-phenyl-4,6,7,8-tetrahydroquinazolin-5(1H)-one]
IC50 (HBV DNA): > 32.9 µM | SI (HBV DNA): <4.7 | CC50 at 8 days [1]: 193 µM

CC1(C)CC(=O)C2=C(C1)NC(c1cccnc1)=NC2c1ccccc1Cl (stereo not shown) [Example 7, 2-(pyridin-3-yl)-4-(2-chlorophenyl)-7,7-dimethyl-4,6,7,8-tetrahydroquinazolin-5(1H)-one]
IC50 (HBV DNA; [3]): 26.2 µM | SI (HBV DNA): 2.57 | CC50 at 8 days [1]: 67.3 µM

O=C1CCCC2=C1C(c1ccc(F)cc1)N=C(c1cccnc1)N2 (stereo not shown) [Example 8, 2-(pyridin-3-yl)-4-(4-fluorophenyl)-4,6,7,8-tetrahydroquinazolin-5(1H)-one]
IC50 (HBV DNA; [3]): > 31.1 µM | SI (HBV DNA): <4.7 | CC50 at 8 days [1]: 148 µM

O=C1CCCC2=C1C(c1ccccc1Cl)N=C(c1cccnc1)N2 (stereo not shown) [Example 9, 2-(pyridin-3-yl)-4-(2-chlorophenyl)-4,6,7,8-tetrahydroquinazolin-5(1H)-one]
IC50 (HBV DNA; [3]): > 29.6 µM | SI (HBV DNA): <5.6 | CC50 at 8 days [1]: 167 µM

O=C1CCCC2=C1C(c1ccc(F)cc1Cl)N=C(c1c(F)cc(F)cc1F)N2 (stereo not shown) [Example 10, 2-(2,4,6-trifluorophenyl)-4-(2-chloro-4-fluorophenyl)-4,6,7,8-tetrahydroquinazolin-5(1H)-one]
IC50 (HBV DNA; [3]): > 24.4 µM | SI (HBV DNA): <3.8 | CC50 at 8 days [1]: 94.1 µM

CC1(C)CC(=O)C2=C(C1)NC(c1c(F)cc(F)cc1F)=NC2c1ccc(F)cc1Cl (stereo not shown) [Example 11, 2-(2,4,6-trifluorophenyl)-4-(2-chloro-4-fluorophenyl)-7,7-dimethyl-4,6,7,8-tetrahydroquinazolin-5(1H)-one]
IC50 (HBV DNA; [3]): > 22.9 µM | SI (HBV DNA): <3.2 | CC50 at 8 days [1]: 73.7 µM

CC1(C)CC(=O)C2=C(C1)NC(c1ccccn1)=NC2c1ccc(F)cc1Cl (stereo not shown) [Example 12, 2-(pyridin-2-yl)-4-(2-chloro-4-fluorophenyl)-7,7-dimethyl-4,6,7,8-tetrahydroquinazolin-5(1H)-one]
IC50 (HBV DNA; [3]): > 26 µM | SI (HBV DNA): <3.7 | CC50 at 8 days [1]: 97 µM
